“Also recorded” adds a separate entry of the source. Where two headings read alike, the source gives them in different places.
How the values were obtained:
NF-κB [1] = assay: In vivo bio-photonic imaging of NF-κB luciferase reporter transgenic mice; set-up: species or system mouse; settings: for NF-κB activation in the brain: Example 4
Method: The animal used to establish this criterion is preferably a laboratory animal, more preferably a rodent, illustratively a mouse. […] In this technique, a test compound, in this case a Ca^2+ channel blocker, is administered by intravenous (i.v.) injection to transgenic mice having a firefly luciferase reporter driven by one or more NF-κB response elements fused to the reporter (NF-κB::LUC mice). NF-κB expression, nuclear translocation and binding to the response elements in any anatomical or sub-anatomical region of a mouse results in activation of the luciferase reporter in that region. Activated luciferase, in presence of a luciferin substrate, emits light which can be detected and quantitated, and can be used in whole-body imaging to identify specific anatomical or sub-anatomical regions where the luciferase is activated as a result of NF-κB expression. Mice can be anesthetized and imaged at time intervals after administration of the test compound to reveal temporal as well as spatial distribution of NF-κB expression.
In vivo bio-photonic imaging was used to investigate temporal and spatial modulation of physiological processes following acute tiapamil administration to mice. For these studies we employed an NF-κB luciferase transgenic line that was constructed using three NF-κB response elements fused to a firefly luciferase reporter gene. The effect of tiapamil on NF-κB activation was monitored as modulation of detectable luciferase reporter activity, a surrogate for NF-κB activation and nuclear translocation with subsequent binding to the response elements of the reporter. Luciferase activity was detected by its ability to cleave luciferin, a luciferase substrate. Light emitted was detected and analyzed using a highly sensitive CCD imaging system.
For the present study, female NF-κB transgenic mice (5 per treatment) received tiapamil i.v. at 1 or 10 mg/kg in a saline vehicle, or vehicle control. At 2, 4 and 6 hours after administration, the animals were anesthetized and imaged. Visual and quantitative analysis was then performed based on counting photons of light emitted from specific anatomical regions. […] The data are depicted quantitatively in FIG. 1.

NF-κB [2] = assay: as above; set-up: species or system mouse; settings: for NF-κB activation in brain (dorsal brain images): Example 3
[3] = in vivo; cited from earlier work
NF-κB [4] = assay: Luciferase imaging of 1 mm coronal brain sections from NF-κB transgenic mice; format: in vivo, mouse; settings: 1 and 10 mg/kg, 6-hour time point
From the text: Evaluation of tiapamil in the NF-κB transgenic mouse line was repeated essentially as described in Example 1 and whole-body images were collected at the 6-hour time point. Brains were rapidly removed, chilled in ice-cold saline and sliced into 1 mm coronal sections. The sections were then placed onto glass slides, covered with luciferin solution (Luciferase Assay System substrate, Promega) and subsequently imaged in an IVIS 200 imaging system (Caliper Corp.) to evaluate effect of tiapamil on regional distribution of luciferase activity in the brain.

C57BL/6 mice [5] = assay: Spontaneous alternation task (SAT) test of short-term memory in T-maze; format: in vivo, mouse; settings: for alternation (short-term memory) in healthy mice / alternation (short-term memory) in scopolamine-treated mice: 30 mg/kg i.p. 8 hours prior to the SAT; for alternation (short-term memory) in healthy mice: administered alone; for alternation (short-term memory) in scopolamine-treated mice: scopolamine 1 mg/kg i.p. 30 minutes prior
Sprague-Dawley rats = assay: Novel object recognition (NOR) test of long-term memory; format: in vivo, rat
From the text: The novel object recognition (NOR) paradigm is a rodent model of recognition learning memory retrieval and takes advantage of the spontaneous behavior of rodents to investigate a novel object by comparison with a familiar object (Ennaceur & Delacour (1988) Behav Brain Res. 31:47-59). NOR has been employed extensively to indicate potential cognition-enhancing properties of test compounds.
The objective of this study was to test cognition-enhancing properties of tiapamil using the NOR test of long-term memory in healthy male rats. Adult male Sprague-Dawley rats were used in this study. Animals were placed in the experimental rooms at postnatal day 80 and assigned unique identification numbers (tail marked). Pairs were housed in polycarbonate cages with filter tops and acclimated for 7 days prior to commencing any studies. Animals were maintained in a 12 hour light/dark cycle with room temperature maintained at 22±2° C. with relative humidity maintained at approximately 50%. Food and water were provided ad libitum. All animals were examined, handled, and weighed for two days prior to initiation of the study to assure adequate health and suitability and to minimize non-specific stress associated with manipulation. Each animal was randomly assigned across treatment groups (8 animals per group) and balanced by cage numbers. […]
Tiapamil (10 or 30 mg/kg) was dissolved in saline and administered i.p. 1 or 8 hours prior to training. […] The rats were assessed for cognitive ability in a test apparatus comprising an open-field arena placed in a sound-attenuated room under dimmed lighting. […] All tests were video-scored blind. […] This 10-minute training period, T1, was recorded for subsequent analysis if necessary. […] After 24 hours, each rat was placed again in the test arena for 10 minutes (T2) in presence of a copy of the familiar object and a novel object, and the time spent exploring both objects was recorded. […] The NOR index was measured as the ratio of time spent exploring the novel object over total time spent exploring both objects (familiar+novel), during retention session T2.

C57BL/6 mice [6] = settings: general statement on the SAT test; cited from earlier work
mice = assay: Lethality of phenylalkylamine Ca2+ channel blockers in mice; format: in vivo; settings: 10 mg/kg i.v.
From the text: […]. The doses administered for these studies were selected to reflect the previously characterized potency of each of the drugs on blocking L-type Ca^2+ channel function. […].

[7] = system: nucleus basalis magnocellularis lesioned rats; settings: cited from earlier work
young adult mice = settings: cited from earlier work
mouse cerebellar neurons = settings: cited from earlier work

gallopamil
NF-κB activation in the brain (NF-κB [1]; 1 mg/kg i.v., 3 surviving animals, 1 mg/kg): induced NF-κB activation; also recorded: increased NF-κB expression in the brain
NF-κB activation in the brain (NF-κB [1]; 10 mg/kg i.v., surviving animals, 2, 4, 6 hours): minor to no change
NF-κB activation in brain (dorsal brain images) (NF-κB [2]; 0.5 mg/kg i.v., 2- and 4-hour time points): marginal effect
NF-κB activation in brain (dorsal brain images) (NF-κB [2]; 0.5 mg/kg i.v., 6-hour time point): more dramatic effect
efficacy on aspects of ischemic disease [3]: ineffective

COc1ccc(CCN(C)CCCC2(c3ccc(OC)c(OC)c3)S(=O)(=O)CCCS2(=O)=O)cc1OC [tiapamil, N-(3,4-dimethoxyphenethyl)-2-(3,4-dimethoxyphenyl)-N-methyl-m-dithian-2-propylamin-1,1,3,3-tetroxide]
NF-κB activation in the brain (NF-κB [1]; 10 mg/kg i.v., surviving animals, 2, 4, 6 hours, 10 mg/kg): robust effect; also recorded: substantially increased
NF-κB activation in peripheral anatomical regions (NF-κB [1]; i.v. 1 or 10 mg/kg): no effect
NF-κB expression in the head (NF-κB [1]; i.v. 1 or 10 mg/kg, 4 and 6 hours after treatment): dose-dependent increase
luciferase expression in all regions of the brain evaluated (NF-κB [4]): dramatic effect
alternation (short-term memory) in healthy mice (C57BL/6 mice [5]): enhances short-term memory
alternation (short-term memory) in healthy mice (C57BL/6 mice [5]; listed as Tiapamil): increased the number of alternation events
alternation (short-term memory) in scopolamine-treated mice (C57BL/6 mice [5]): reverses memory deficits
alternation (short-term memory) in scopolamine-treated mice (C57BL/6 mice [5]; listed as Tiapamil): prevented scopolamine-induced impairment
NOR index 24 hours after training (Sprague-Dawley rats; 10 mg/kg i.p., 1 hour): significantly increased NOR index
NOR index 24 hours after training (Sprague-Dawley rats; 10 mg/kg i.p., 8 hours): significantly increased NOR index
NOR index 24 hours after training (Sprague-Dawley rats; 30 mg/kg i.p.): not effective
NF-κB activation in brain (dorsal brain images) (NF-κB [2]; 10 mg/kg i.v., 2, 4 and 6 hours): robust effect
NF-κB signaling in the brain (light emission from head region, dorsal view) (NF-κB [2]; Example 5, i.p., 2, 4, 6 and 8 hours): enhanced
efficacy on aspects of ischemic disease [3]: ineffective

CN1[C@@H]2C[C@@H](OC(=O)[C@H](CO)c3ccccc3)C[C@H]1[C@@H]1O[C@@H]12 [scopolamine]
spontaneous alternation (C57BL/6 mice [6]): impaired

COc1cc2c(cc1OC)C(=O)C(CC1CCN(Cc3ccccc3)CC1)C2 (centres unmarked) [donepezil]
spontaneous alternation (C57BL/6 mice [6]): enhanced

O=C(O)c1cc(/N=N/c2ccc(S(=O)(=O)Nc3ccccn3)cc2)ccc1O [sulfasalazine]
effect on tiapamil-induced short-term memory enhancement (C57BL/6 mice [5]; sulfasalazine 3 mg/kg i.p. co-administered with tiapamil 30 mg/kg 8 hours prior to the SAT, healthy mice): loss of tiapamil's memory-enhancing effects
measureable NF-κB activity (NF-κB [2]; Example 5, co-administration of tiapamil and high-dose sulfasalazine): increased amount of measureable NF-κB activity
measureable NF-κB activity (NF-κB [2]; Example 5, high-dose sulfasalazine alone): increased amount of measureable NF-κB activity

COc1ccc(CCN(C)CCCC(C#N)(c2ccc(OC)c(OC)c2)C(C)C)cc1OC (centres unmarked) [verapamil]
Deaths (n = 5) (mice): 5
acquisition and performance aspects of active avoidance ([7]; 2.5 and 5 mg/kg): improved
acquisition and performance aspects of active avoidance ([7]; lower (1 mg/kg) and higher (10 mg/kg) doses): ineffective
linear maze acquisition (young adult mice; at the most effective retention dose): failed to enhance acquisition
linear maze retention (young adult mice; young adult mice): enhancement effects at three doses
retention of passive avoidance learning (young adult mice; young adult mice): failed to facilitate retention
genetically-inhibited neurite extension (mouse cerebellar neurons; mouse cerebellar neurons): could restore
neuroprotection (mouse cerebellar neurons; normal neurons exposed to high concentrations of ethanol): neuroprotective
